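How tested: cells in 96-well plates exposed to compound for 48 hours at five concentrations. GI50 is the concentration that inhibits growth by half. At the TGI there is no net growth.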
What was measured:
Test in all cases: growth of human tumour cells (NCI), 48 h
SNB-19 CNS = test system: SNB-19 CNS
IGROV1 ovarian = test system: IGROV1 ovarian
SR leukemia = test system: SR leukemia
TK-10 renal = test system: TK-10 renal
CCRF-CEM leukemia = test system: CCRF-CEM leukemia
MOLT-4 leukemia = test system: MOLT-4 leukemia
T-47D breast = test system: T-47D breast
HS 578T breast = test system: HS 578T breast
MDA-N = test system: MDA-N
PC-3 prostate = test system: PC-3 prostate
SNB-75 CNS = test system: SNB-75 CNS

| SMILES | TGI (SNB-19 CNS) | TGI (IGROV1 ovarian) | TGI (SR leukemia) | TGI (TK-10 renal) | TGI (CCRF-CEM leukemia) | TGI (MOLT-4 leukemia) | TGI (T-47D breast) | TGI (HS 578T breast) | TGI (MDA-N) | TGI (PC-3 prostate) | TGI (SNB-75 CNS) | GI50 (T-47D breast) | GI50 (SNB-19 CNS) | GI50 (IGROV1 ovarian) | GI50 (SR leukemia) | GI50 (TK-10 renal) | GI50 (HS 578T breast) | GI50 (CCRF-CEM leukemia) | GI50 (PC-3 prostate) | GI50 (MOLT-4 leukemia) |
| --- | --- | --- | --- | --- | --- | --- | --- | --- | --- | --- | --- | --- | --- | --- | --- | --- | --- | --- | --- | --- |
| CCCCCCCCCCCCCCCCCC(=O)O[C@H](COC(=O)CCCCCCCCCCC)COC(=O)CCCCCCCCCCCCCCC | > 100 µM | > 100 µM | > 100 µM | > 100 µM | > 100 µM | > 100 µM | – | – | – | – | – | – | – | – | – | – | – | – | – | – |
| O=c1[nH]nc(Cc2ccc([N+](=O)[O-])cc2)n1CCO | > 100 µM | > 100 µM | – | > 100 µM | – | – | > 100 µM | > 100 µM | > 100 µM | > 100 µM | – | – | – | – | – | – | – | – | – | – |
| CC(=O)O[C@H]1C#C/C=C\C#CC[C@@H]2C(=O)N[C@@H]12 | > 100 µM | > 100 µM | – | > 100 µM | > 100 µM | > 100 µM | > 100 µM | > 86.2 µM | > 100 µM | > 100 µM | > 90.7 µM | – | – | – | – | – | – | – | – | – |
| OCC1OC(n2cnc3c(Cl)nc(Nc4ccccc4)nc32)CC1O (stereo not given) | > 100 µM | 66.8 µM | – | > 100 µM | > 100 µM | > 100 µM | > 100 µM | 90.1 µM | > 100 µM | > 100 µM | > 100 µM | – | – | – | – | – | – | – | – | – |
| NC1=NS(=O)(=O)Nc2nc(-c3ccc([N+](=O)[O-])cc3)[nH]c21 | > 100 µM | > 100 µM | > 100 µM | > 100 µM | > 100 µM | > 100 µM | – | – | – | – | > 100 µM | – | – | – | – | – | – | – | – | – |
| c1cc2nnnn2nc1N1CCCC1 | > 100 µM | – | > 100 µM | > 100 µM | > 100 µM | > 100 µM | – | – | > 100 µM | > 100 µM | – | – | – | – | – | – | – | – | – | – |
| CNC(=O)Oc1ccc(-c2cn3cc(OC(=O)NC)ccc3n2)cc1 | > 100 µM | > 100 µM | > 100 µM | > 100 µM | 52.9 µM | > 100 µM | > 100 µM | – | > 100 µM | > 100 µM | > 100 µM | – | – | – | – | – | – | – | – | – |
| C=C1C(=O)CC2C(=O)C(C)(O)CC/C=C(\C)C(=O)CC12 (stereo not given) | > 100 µM | 37.5 µM | > 55.1 µM | 34.4 µM | 23.5 µM | 17.1 µM | – | 43.5 µM | 37.1 µM | 83 µM | > 100 µM | – | – | – | – | – | – | – | – | – |
| Nn1c(CCCCCCCCc2nnc(COc3ccc(Cl)cc3)n2N)nnc1COc1ccc(Cl)cc1 | > 100 µM | > 100 µM | – | > 100 µM | – | > 100 µM | – | – | – | > 100 µM | > 100 µM | – | – | – | – | – | – | – | – | – |
| NC1=NS(=O)(=O)Nc2nc(-c3ccc(Cl)cc3)c(-c3ccc(Cl)cc3)nc21 | > 100 µM | > 100 µM | > 100 µM | > 100 µM | > 100 µM | > 100 µM | – | – | – | – | > 100 µM | – | – | – | – | – | – | – | – | – |
| COC(=O)N/N=C(\C)C(CN1CCCCC1)C(C1=C(O)c2ccccc2OC1)c1ccccc1 (stereo not given) | > 100 µM | > 100 µM | > 100 µM | > 100 µM | > 100 µM | > 100 µM | – | – | – | – | > 100 µM | – | – | – | – | – | – | – | – | – |
| O=C1NC(N/N=C/C(O)C(O)C(O)CO)=N/C1=C\c1ccco1 (stereo not given) | > 100 µM | > 100 µM | – | > 100 µM | > 100 µM | > 100 µM | > 100 µM | > 100 µM | > 100 µM | – | > 100 µM | – | – | – | – | – | – | – | – | – |
| Cc1cn(C2CC(n3cc(Cn4cc(Br)c(=O)[nH]c4=O)nn3)C(CO)O2)c(=O)[nH]c1=O (stereo not given) | > 100 µM | > 100 µM | – | > 100 µM | > 100 µM | > 100 µM | > 100 µM | > 100 µM | > 100 µM | > 100 µM | > 100 µM | – | – | – | – | – | – | – | – | – |
| Nc1ccc(N=Nc2ccccc2)cc1 | > 100 µM | > 100 µM | > 100 µM | > 100 µM | > 100 µM | > 100 µM | – | > 100 µM | > 100 µM | > 100 µM | 56 µM | – | – | – | – | – | – | – | – | – |
| COc1cc(C2SCC(=O)N2c2ccc(-c3ccc(-n4c(-c5ccccc5)nc5ccccc5c4=O)cc3)cc2)cc(OC)c1OC (stereo not given) | > 100 µM | > 100 µM | > 100 µM | > 100 µM | > 100 µM | > 100 µM | > 100 µM | > 100 µM | – | 41.5 µM | – | – | – | – | – | – | – | – | – | – |
| C1CCC2C(C1)CCCC2NC1=NCCO1 (stereo not given) | > 100 µM | > 100 µM | > 100 µM | > 100 µM | > 100 µM | > 100 µM | > 100 µM | – | > 100 µM | > 100 µM | > 100 µM | – | – | – | – | – | – | – | – | – |
| C[C@]12CCc3nc(Nc4ccccc4)sc3C1=CC[C@@H]1[C@@H]2CC[C@]2(C)/C(=N/NC(N)=S)CC[C@@H]12 | > 100 µM | > 100 µM | > 100 µM | > 100 µM | > 100 µM | > 100 µM | > 100 µM | > 100 µM | – | > 100 µM | – | 2.85 µM | 10.3 µM | 3.89 µM | 1.71 µM | 46.4 µM | > 100 µM | 1.98 µM | 2.95 µM | 1.88 µM |
| N#Cc1c(-c2ccccc2)nc(-c2ccccc2)sc1=S | > 100 µM | > 100 µM | – | > 100 µM | > 100 µM | – | > 100 µM | > 100 µM | > 100 µM | – | > 100 µM | – | – | – | – | – | – | – | – | – |
| Cc1ccc(/C(O)=C/C(=O)C(=O)/C=C(\O)c2ccc(C)cc2C)c(C)c1 | 5.67 µM | 4.42 µM | 4.8 µM | 3.45 µM | 3.17 µM | 4.67 µM | 4.46 µM | 5.15 µM | – | 5.64 µM | 4.19 µM | – | – | – | – | – | – | – | – | – |
| CCOC(=O)/C1=C(\C)N(c2ccc(C)cc2)C(=O)c2ccccc2C(=O)c2c(OC(C)=O)ccc(OC(C)=O)c21 | 90.1 µM | 36.6 µM | 35.7 µM | 44.4 µM | 26.2 µM | 21.4 µM | 76.5 µM | 48.2 µM | – | > 100 µM | > 100 µM | – | – | – | – | – | – | – | – | – |
| O=C(CSc1nnc(Cc2ccccc2)o1)Nc1ccc([N+](=O)[O-])cc1 | – | > 100 µM | – | > 100 µM | > 100 µM | > 100 µM | – | – | – | – | > 100 µM | – | – | – | – | – | – | – | – | – |
| CC(=O)Nc1cc2c(s1)CCC1CC(=O)NN=C21 (stereo not given) | > 100 µM | > 100 µM | > 100 µM | > 100 µM | > 100 µM | > 100 µM | – | – | – | – | > 100 µM | – | – | – | – | – | – | – | – | – |
| CC(=O)OC1CC2C(C)(C)OC(=O)CC(OC(C)=O)[C@]2(C)C2CCC3(C)C(=CCC3[C@H]3COC(=O)C3)[C@]12C (stereo not given in full) | > 100 µM | > 100 µM | 78.1 µM | > 100 µM | 65.8 µM | 89.5 µM | – | – | – | – | > 100 µM | – | – | – | – | – | – | – | – | – |
